Data on three compounds can be found in patent US9572855B2, “Combination anti-estrogen receptor cancer therapy using MUC1 peptides and chemotherapeutics” (DANA-FARBER CANCER INSTITUTE, INC., priority 2013, dated 2017).

Series [1] relates to BT-474/MUC1shRNA cells. Conditions: 5 μM tamoxifen on days 0 and 2 (FIG. 1B). The source says: (§1) The multiple effect-level isobologram analyses are shown for the ED50 (X), ED75 (+) and ED90 (⊙) values.
Series [2] relates to MCF-7/MUC1-C cells. In words: Cell growth (viable cell number); Chou-Talalay drug combination. Format: cell-based, human. Conditions: 5 μM tamoxifen on days 0, 2 and 4 (FIG. 2B). The source says: Lysates were immunoblotted with the indicated antibodies. […] Lysates were immunoblotted with the indicated antibodies.
(§2) (FIG. 6A) MCF-7/MUC1-C cells were infected with lentiviruses expressing the control shRNA (CshRNA) or the MUC1shRNA. Lysates from wild-type (WT) MCF-7 cells, MCF-7/MUC1-C/CshRNA and MCF-7/MUC1-C/MUC1shRNA cells were immunoblotted with the indicated antibodies. […] The results (mean±SD of three replicates) are expressed as viable cell number. […] The multiple effect-level isobologram analyses are shown for the ED50 (X), ED75 (+) and ED90 (⊙) values.

Series [3] relates to MCF-7/MUC1-C cells. In words: Cell death by trypan blue staining. Format: cell-based, human. The text has this:
(§3) (FIG. 2B) Control MCF-7/vector (diamonds) and MCF-7/MUC1-C (triangles) cells were left untreated.

In series [4] the test system is BT-474/CshRNA cells. In words: Cell growth (viable cell number); Chou-Talalay drug combination. Format: cell-based, human. Conditions: BT-474 and BT-474/CshRNA cells; 5 μM tamoxifen on days 0 and 2; vs untreated (FIG. 1B).
In series [5] the test system is MCF-7/MUC1-C/MUC1shRNA cells. In words: Cell growth (viable cell number). The series is classed as cell-based, human. Conditions: 5 μM tamoxifen days 0 and 2 (FIG. 6B).
Text: as §2

Series [6] deals with MCF-7/vector cells. In words: Cell growth (cell number); Chou-Talalay drug combination. Particulars: MCF-7 and MCF-7/vector cells; 5 μM tamoxifen on days 0, 2 and 4 (FIG. 2B). Format: cell-based, human.
Text: as §1

Series [7] relates to MCF-7/vector cells. In words: Colony formation assay. Format: cell-based, human. Particulars: 5 μM tamoxifen every other day for 7 days (FIG. 2E, left).
Text: (FIG. 2A) Lysates from wild-type (WT) MCF-7 cells, MCF-7/vector and MCF-7/MUC1-C cells were immunoblotted with the indicated antibodies. (FIG. 2B) Control MCF-7/vector (diamonds) and MCF-7/MUC1-C (triangles) cells were left untreated. […] Cell number is expressed as the mean±SD of three replicates. […] The results (mean±SD of three replicates) are expressed as the percentage of cell death as determined by trypan blue staining on the indicated days (left) or on day 4 (right). (FIG. 2D) MCF-7/vector and MCF-7/MUC1-C cells were seeded at 500 cells/well (6-well plate), grown for 7 days and then stained with crystal violet (left). Colony number (>30 cells) is expressed as the mean±SD of three replicates (right). […] Colony number (>30 cells) is expressed as the mean±SD of three replicates. Colony formation assays. Cells were seeded in 6-well plates for 24 h and then left untreated or treated with inhibitor. After 7-14 d, the cells were washed and stained with 0.5% crystal violet in 25% methanol. Colonies >30 cells were counted in triplicate wells.
Series [8] concerns MCF-7/MUC1-C cells. In words: Colony formation assay. Format: cell-based, human. Particulars: 5 μM tamoxifen every other day for 7 days (FIG. 2E, right). How it is done: as §3
(§4) FIGS. 5A-G. Tamoxifen-resistant cells are sensitive to MUC1-C inhibition. […] Lysates were immunoblotted with the indicated antibodies. (FIG. 5B) BT-474/CshRNA cells were left untreated (diamonds) or treated with 5 μM GO-203 (squares) each day for the indicated days. […] Lysates were immunoblotted with the indicated antibodies. (FIG. 5E) MCF-7/MUC1-C cells were left untreated (diamonds) or treated with 5 μM GO-203 (squares) each day for the indicated days. […] Soluble chromatin was precipitated with anti-ERα (left), anti-CBP (right) or a control IgG. The precipitates were analyzed for Rab31 promoter sequences.
(§5) Colony formation assays. Cells were seeded in 6-well plates for 24 h and then left untreated or treated with inhibitor. After 7-14 d, the cells were washed and stained with 0.5% crystal violet in 25% methanol. Colonies >30 cells were counted in triplicate wells.

Series [9] relates to BT-474/MUC1shRNA cells. In words: Colony formation assay. The series is classed as cell-based, human. Conditions: 5 μM tamoxifen every other day for 14 days (FIG. 1E, right). How it is done:
as §5

For series [10], the system named is BT-474/MUC1shRNA cells. In words: Cell death by trypan blue staining. The series is classed as cell-based, human. Particulars: 5 μM tamoxifen on days 0 and 2; compared to BT-474/CshRNA cells (FIG. 1C, left).
Text: Cell number is expressed as the mean±SD of three replicates. […] The results (mean±SD of three replicates) are expressed as the percentage of cell death as determined by trypan blue staining on the indicated days (left) or on day 4 (right). […] Colony number (>30 cells) is expressed as the mean±SD of three replicates (right). […] Colony number (>30 cells) is expressed as the mean±SD of three replicates.
Series [11] relates to BT-474/CshRNA cells. In words: Colony formation assay. Format: cell-based, human. Particulars: 5 μM tamoxifen every other day for 14 days (FIG. 1E, left). How it is done: as §4, §5
For a further series, the system named is MUC1-negative 293T cells. In words: Cell death by trypan blue staining. The series is classed as cell-based, human. Particulars: GO-203 each day for 4 days, day 4 (FIG. 8). The text has this: FIG. 8. 293T cells were left untreated or treated with GO-203 each day for 4 days.

Non-standard residues stand in square brackets, D forms with d. Residues, ends and D or L forms follow the SMILES beside them.

With `CC/C(=C(\c1ccccc1)c1ccc(OCCN(C)C)cc1)c1ccccc1` [tamoxifen], the “proliferation (cell number)” value in the series on BT-474/MUC1shRNA cells [1] is recorded as “clearly inhibited”; in the series on MCF-7/MUC1-C cells [2], “little effect”. Also, the “loss of viability (percentage of cell death)” value in the series with MCF-7/MUC1-C cells [3] (5 μM tamoxifen on days 0, 2 and 4, compared to MCF-7/vector cells (FIG. 2C, left)) is recorded as “less sensitive”; in the series with BT-474/MUC1shRNA cells [10], “marked loss of viability”. Further, the “growth (cell number)” value was “unaffected” with BT-474/CshRNA cells [4] and “inhibited” in the series on MCF-7/vector cells [6]. For the same compound, the “sensitivity to tamoxifen treatment (viable cell number)” value in series [5] is “regained sensitivity”. Besides, the formation of colonies result with MCF-7/vector cells [7] is “effective in decreasing”. For the same compound, in the series on MCF-7/MUC1-C cells [8], the clonogenic survival entry is “but not clonogenic survival”. Further, in the series on BT-474/MUC1shRNA cells [9], the colony formation result was “marked decrease”. Besides, the “ability to form colonies” value in the series on BT-474/CshRNA cells [11] was “little if any effect”.

For the compound 4-hydroxytamoxifen [OHTAM], the “loss of viability (percentage of cell death)” value in the series with MCF-7/MUC1-C cells [3] (10 nM OHTAM on days 0 and 2, day 4, compared to MCF-7/vector cells (FIG. 2C, right)) is “less sensitive”.

Regarding `N=C(N)NCCC[C@@H](N)C(=O)N[C@H](CCCNC(=N)N)C(=O)N[C@H](CCCNC(=N)N)C(=O)N[C@H](CCCNC(=N)N)C(=O)N[C@H](CCCNC(=N)N)C(=O)N[C@H](CCCNC(=N)N)C(=O)N[C@H](CCCNC(=N)N)C(=O)N[C@H](CCCNC(=N)N)C(=O)N[C@H](CCCNC(=N)N)C(=O)N[C@H](CS)C(=O)N[C@H](CCC(N)=O)C(=O)N[C@H](CS)C(=O)N[C@H](CCCNC(=N)N)C(=O)N[C@H](CCCNC(=N)N)C(=O)N[C@H](CCCCN)C(=O)N[C@H](CC(N)=O)C(=O)O` [GO-203, [R]9-CQCRRKN] (H-[dR][dR][dR][dR][dR][dR][dR][dR][dR][dC][dQ][dC][dR][dR][dK][dN]-OH), in the series with MUC1-negative 293T cells, the “survival (percentage of cell death)” value was “little if any effect”.
